Measurements reported in ChEMBL document CHEMBL4346738, “Biological evaluation of molecules of the azaBINOL class as antiviral agents: Inhibition of HIV-1 RNase H activity by 7-isopropoxy-8-(naphth-1-yl)quinoline” (Bioorg Med Chem, 2019).
Calls of active or inactive are those of the source. The calls are words filed in the database; no cut-off is given here.

Columns and labels:
[1] = Inhibition of Escherichia coli reverse transcriptase RNase H using 18-nucleotide 3'-fluorescein-labeled RNA/5'-dabcyl-labeled DNA hybrid as substrate measured after 1 hr by FRET based assay
[2] = biological target: T1, Human immunodeficiency virus type 1 reverse transcriptase (Human immunodeficiency virus 1, UniProt Q72547); test: Inhibition of HIV1 reverse transcriptase RNase H using 18-nucleotide 3'-fluorescein-labeled RNA/5'-dabcyl-labeled DNA hybrid as substrate measured after 1 hr by FRET based assay
[3] = biological target: Reverse transcriptase (Moloney murine leukemia virus, UniProt Q83371); test: Inhibition of Murine leukemia virus reverse transcriptase RNase H using 18-nucleotide 3'-fluorescein-labeled RNA/5'-dabcyl-labeled DNA hybrid as substrate measured after 1 hr by FRET based assay
[4] = system: TZM; test: (§1) Cytotoxicity against human TZM-bl cells assessed as reduction in cell viability after 48 hrs by MTT assay; assay type: cell-based; conditions: tzm, 48 h
[5] = system: Human immunodeficiency virus 1; test: Antiviral activity against HIV1 YU2 pseudovirus infected in human TZM-bl cells assessed as inhibition of viral infection incubated for 20 mins prior to infection and measured after 48 hrs post infection by bright Glo-luciferase reporter gene assay; assay type: functional, organism-based, isolate YU2
[6] = Cytotoxicity against human LC5 cells assessed as reduction in cell viability incubated for 48 hrs by resazurin dye-based assay; conditions: for CC50 at 48 h: LC5 cells
[7] = system: Human immunodeficiency virus 1; test: Antiviral activity against HIV1 HXB2 pseudovirus infected in human TZM-bl cells assessed as inhibition of viral infection incubated for 20 mins prior to infection and measured after 48 hrs by bright Glo-luciferase reporter gene assay; assay type: functional, organism-based, M:B_HXB2R
[8] = system: Human immunodeficiency virus 1; test: Antiviral activity against HIV1 LAI infected in human LC5 cells expressing DsRed1 reporter gene assessed as inhibition of viral infection measured after 48 hrs post infection by reporter gene based […] assay; assay type: functional, organism-based
[9] = system: Human immunodeficiency virus 1; test: Antiviral activity against HIV1 89.6 pseudovirus infected in human TZM-bl cells assessed as inhibition of viral infection incubated for 20 mins prior to infection and measured after 48 hrs post infection by bright Glo-luciferase reporter gene assay; assay type: functional, organism-based, M:B_89.6
[10] = as §1; assay type: cell-based; conditions: TZM-bl cells
[11] = Selectivity index, ratio of CC50 for human LC5 cells to IC50 for antiviral activity against HIV1 LAI infected in human LC5 cells; assay type: toxicity, cell-based; conditions: read-out: Ratio CC50/IC50
[12] = biological target: T1, Human immunodeficiency virus type 1 reverse transcriptase; test: Inhibition of HIV1 Reverse transcriptase polymerase assessed as decrease in digoxigenin and biotin-dUTP incorporation into DNA using poly(A)/oligo(dT)15 as template/primer by ELISA
[13] = system: Human immunodeficiency virus 1; test: Antiviral activity against HIV1 89.6 pseudovirus infected in human TZM-bl cells assessed as inhibition of viral infection up to 200 uM incubated for 20 mins prior to infection and measured after 48 hrs post infection by bright Glo-luciferase reporter gene assay; assay type: functional, organism-based; conditions: M:B_89.6
[14] = biological target: Human immunodeficiency virus type 1 integrase (Human immunodeficiency virus 1, UniProt Q7ZJM1); test: Inhibition of recombinant HIV1 integrase strand transfer activity using biotin-labeled double-stranded HIV1 LTR U5 donor DNA substrate pretreated for 5 mins followed by substrate addition and measured after 30 mins by ELISA
[15] = system: Human immunodeficiency virus 1; test: Antiviral activity against HIV1 HXB2 pseudovirus infected in human TZM-bl cells assessed as inhibition of viral infection up to 200 uM incubated for 20 mins prior to infection and measured after 48 hrs post infection by bright Glo-luciferase reporter gene assay; assay type: functional, organism-based; conditions: M:B_HXB2R
[16] = system: Human immunodeficiency virus 1; test: Antiviral activity against HIV1 LAI infected in human LC5 cells expressing DsRed1 reporter gene assessed as inhibition of viral infection up to 200 uM measured after 48 hrs post infection by reporter gene based […] assay; assay type: functional, organism-based
[17] = system: Human immunodeficiency virus 1; test: Antiviral activity against HIV1 YU2 pseudovirus infected in human TZM-bl cells assessed as inhibition of viral infection up to 200 uM incubated for 20 mins prior to infection and measured after 48 hrs post infection by bright Glo-luciferase reporter gene assay; assay type: functional, organism-based; conditions: isolate YU2
[18] = Metal chelating activity assessed as compound-Mg2+ complex formation in presence of varying concentrations of Mg2+ at 100 uM by UV-vis spectrometry; assay type: ADME
[19] = biological target: T1, Human immunodeficiency virus type 1 reverse transcriptase; test: Binding affinity to recombinant wild-type full length HIV1 reverse transcriptase p66/p51 expressed in Escherichia coli by biolayer interferometry
[20] = Inhibition of Avian myeloblastosis virus reverse transcriptase RNase H using 18-nucleotide 3'-fluorescein-labeled RNA/5'-dabcyl-labeled DNA hybrid as substrate measured after 1 hr by FRET based assay
[21] = Compound aggregation in D2O/1% DMSO-d6 solvent assessed as change in chemical shift at 12 to 200 uM by 1H NMR dilution analysis; assay type: physicochemical
[22] = system: Human immunodeficiency virus 1; test: Selectivity ratio of IC50 for HIV1 V13-03413B infected in human LC5 cells to IC50 for HIV1 LAI infected in human LC5 cells; assay type: functional
[23] = system: Human immunodeficiency virus 1; test: Antiviral activity against HIV1 V13-03413B infected in human LC5 cells expressing DsRed1 reporter gene assessed as inhibition of viral infection measured after 48 hrs post infection by reporter gene based […] assay; assay type: functional, organism-based; conditions: Human immunodeficiency virus 1, V13-03413B
[24] = Compound aggregation in D2O/1% DMSO-d6 solvent assessed as peak shape at 12 to 200 uM by 1H NMR dilution analysis; assay type: physicochemical
[25] = Compound aggregation in D2O/1% DMSO-d6 solvent assessed as number of resonance at 12 to 200 uM by 1H NMR dilution analysis; assay type: physicochemical
[26] = Selectivity index, ratio of CC50 for human TZM-bl cells to IC50 for antiviral activity against HIV1 89.6 pseudovirus infected in human TZM-bl cells; assay type: toxicity, cell-based; conditions: read-out: Ratio CC50/IC50
[27] = system: Human immunodeficiency virus 1; test: Antiviral activity against HIV1 YU2 pseudovirus infected in human TZM-bl cells assessed as inhibition of viral infection at 20 nM measured after 48 hrs post infection by bright Glo-luciferase reporter gene assay relative to control; assay type: functional; conditions: Human immunodeficiency virus 1, isolate YU2, TZM-bl
[28] = system: Human immunodeficiency virus 1; test: Antiviral activity against HIV1 HXB2 pseudovirus infected in human TZM-bl cells assessed as inhibition of viral infection at 20 nM measured after 48 hrs post infection by bright Glo-luciferase reporter gene assay relative to control; assay type: functional; conditions: Human immunodeficiency virus 1, M:B_HXB2R
[29] = system: Human immunodeficiency virus 1; test: Antiviral activity against HIV1 89.6 pseudovirus infected in human TZM-bl cells assessed as inhibition of viral infection at 20 nM measured after 48 hrs post infection by bright Glo-luciferase reporter gene assay relative to control; assay type: functional; conditions: Human immunodeficiency virus 1, M:B_89.6, TZM-bl
[30] = Half life of the compound in methyl alcohol assessed as compound racemization at 24 degC; assay type: physicochemical
[31] = Selectivity index, ratio of CC50 for human TZM-bl cells to IC50 for antiviral activity against HIV1 HXB2 pseudovirus infected in human TZM-bl cells; assay type: toxicity, cell-based; conditions: read-out: Ratio CC50/IC50
[32] = Human immunodeficiency virus 1, isolate YU2, TZM-bl, read-out: IC50
[33] = Human immunodeficiency virus 1, M:B_HXB2R, TZM-bl, read-out: IC50
[34] = Human immunodeficiency virus 1, LAI, 48 h, read-out: IC50
[35] = Human immunodeficiency virus 1, M:B_89.6, TZM-bl, read-out: IC50

Chain of Human immunodeficiency virus type 1 integrase (Q7ZJM1 whole entry): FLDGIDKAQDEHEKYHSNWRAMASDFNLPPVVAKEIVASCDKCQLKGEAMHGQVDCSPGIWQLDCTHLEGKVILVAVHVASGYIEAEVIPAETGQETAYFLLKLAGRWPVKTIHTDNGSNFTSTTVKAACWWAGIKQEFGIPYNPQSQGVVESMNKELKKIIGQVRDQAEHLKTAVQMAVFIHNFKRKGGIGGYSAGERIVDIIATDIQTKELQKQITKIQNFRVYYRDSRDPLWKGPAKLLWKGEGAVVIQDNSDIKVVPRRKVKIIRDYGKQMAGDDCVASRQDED

## Cc1cc(/C=C/C#N)cc(C)c1Nc1ccnc(Nc2ccc(C#N)cc2)n1 [RILPIVIRINE]
[1]
  IC50: > 10 µM
[2]
  IC50: > 10 µM
[3]
  IC50: > 10 µM

## O=C1Nc2ccc(Cl)cc2[C@@](C#CC2CC2)(C(F)(F)F)O1 [EFAVIRENZ]
[4]
  CC50: Non-Toxic

## CC(C)Oc1ccc2ccccc2c1-c1cccc2cccnc12
[5]; [32]
  IC50: > 100 µM
[6]
  CC50 at 48 h: 145 µM
[7]; [33]
  IC50: > 100 µM
[8]; [34]
  IC50: 39.5 µM
[9]; [35]
  IC50: > 100 µM
[10]
  CC50 at 48 h: > 100 µM
[11]
  selectivity ratio: 3.6

## CC(C)Oc1ccc2cccnc2c1-c1cccc2cccnc12
[12]
  IC50: > 100 µM
[13]
  Activity: inactive
[14]
  IC50: > 100 µM
[5]
  IC50: Not Active
[1]
  IC50: > 100 µM
[15]
  Activity: inactive
[6]; 48 h
  CC50: Non-Toxic
[7]
  IC50: Not Active
[16]
  Activity: inactive
[2]
  IC50: > 100 µM
[8]
  IC50: Not Active
[9]
  IC50: Not Active
[3]
  IC50: > 100 µM
[17]
  Activity: inactive
[4]
  CC50: Non-Toxic

## CCN(CC)C(=O)Oc1ccc2cccnc2c1-c1cccc2cccnc12
[13]
  Activity: inactive
[5]
  IC50: Not Active
[15]
  Activity: inactive
[6]
  CC50 at 48 h: 383 µM
[7]
  IC50: Not Active
[16]
  Activity: inactive
[8]
  IC50: Not Active
[9]
  IC50: Not Active
[17]
  Activity: inactive
[4]
  CC50: Non-Toxic

## CC(C)Oc1ccc2cccnc2c1-c1cccc2ccccc12
[12]
  IC50: > 100 µM
[14]
  IC50: > 100 µM
[5]; [32]
  IC50: 8.9 µM
[1]
  IC50: 44.3 µM
[18]
  Activity: Not Active
[19]
  Kd: 38 µM
[20]
  IC50: > 100 µM
[6]
  CC50 at 48 h: 86.5 µM
[21]
  Activity: Not Active
[22]
  Ratio IC50: 5
[7]; [33]
  IC50: 6.7 µM
[23]
  IC50: 34.2 µM
[24]
  Activity: Not Active
[25]
  Activity: Not Active
[2]
  IC50: 46.8 µM
[8]; [34]
  IC50: 6.7 µM
[9]; [35]
  IC50: 4.7 µM
[26]
  selectivity ratio: 14.6
[3]
  IC50: > 100 µM
[10]
  CC50 at 48 h: 68.5 µM
[11]
  selectivity ratio: 11.4

## COc1cnc(-n2cnc(C)n2)c2[nH]cc(C(=O)C(=O)N3CCN(C(=O)c4ccccc4)CC3)c12
[27]
  inhibition at 0.02 µM: 100%
[28]
  inhibition at 0.02 µM: 100%
[29]
  inhibition at 0.02 µM: 100%

## Oc1ccc2cccnc2c1-c1cccc2ccccc12
[30]
  half-life: 120 h

## CCN(CC)C(=O)Oc1ccc2ccccc2c1-c1cccc2cccnc12
[31]
  selectivity ratio: 5.5
[5]; [32]
  IC50: 14 µM
[6]
  CC50 at 48 h: 71.4 µM
[7]; [33]
  IC50: 12.6 µM
[8]; [34]
  IC50: 50.1 µM
[9]; [35]
  IC50: 16.8 µM
[10]
  CC50 at 48 h: 69.3 µM
[11]
  selectivity ratio: 1.4

## NC(=O)c1c(N)sc2c1CCCCC2
[2]
  IC50: 28.1 µM

## Oc1ccc2ccccc2c1-c1cccc2cccnc12
[30]
  half-life: 89 h

## CCN(CC)C(=O)Oc1ccc2cccnc2c1-c1cccc2ccccc12
[5]; [32]
  IC50: 77.6 µM
[6]
  CC50 at 48 h: 51.9 µM
[7]; [33]
  IC50: 61.4 µM
[8]; [34]
  IC50: 24.1 µM
[9]; [35]
  IC50: 56.6 µM
[26]
  selectivity ratio: 1.7
[10]
  CC50 at 48 h: 95 µM
[11]
  selectivity ratio: 2.2
